In one assay the target is T1, full-length human PHD1 (Homo sapiens, UniProt Q96KS0).
T1 construct: FLAG (N); purchased Active Motif 81064; host or cells: baculovirus expression system
Put plainly: TR-FRET assay, enzymatic IC50 against PHD1. For IC50: 15 nM PHD1. It counts as biochemical. An excerpt:
PHD1 was expressed in a baculovirus expression system as the full-length protein (NCBI accession number NP_542770.2) with an N-terminal FLAG tag (molecular weight 44.9 kDa).
A general note: TR-FRET usually uses a lanthanide donor and a delayed reading to cut background.

A further assay addresses full-length human PHD2 (Homo sapiens, UniProt Q9GZT9). As to the kind of experiment: TR-FRET assay, enzymatic IC50 against PHD2.

Sequence of full-length human PHD2 (Q9GZT9 whole entry): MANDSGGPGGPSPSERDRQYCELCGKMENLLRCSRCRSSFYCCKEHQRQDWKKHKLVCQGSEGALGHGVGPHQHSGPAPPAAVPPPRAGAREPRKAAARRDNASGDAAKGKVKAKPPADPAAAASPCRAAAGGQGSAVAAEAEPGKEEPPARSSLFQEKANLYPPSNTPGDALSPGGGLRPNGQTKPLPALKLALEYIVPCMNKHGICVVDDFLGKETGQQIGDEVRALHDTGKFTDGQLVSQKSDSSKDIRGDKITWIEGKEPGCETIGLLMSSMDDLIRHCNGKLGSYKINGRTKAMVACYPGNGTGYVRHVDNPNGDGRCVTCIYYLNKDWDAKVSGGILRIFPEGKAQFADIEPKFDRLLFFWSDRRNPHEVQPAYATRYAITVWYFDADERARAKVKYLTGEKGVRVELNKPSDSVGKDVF
T1 sequence (Q96KS0 whole entry): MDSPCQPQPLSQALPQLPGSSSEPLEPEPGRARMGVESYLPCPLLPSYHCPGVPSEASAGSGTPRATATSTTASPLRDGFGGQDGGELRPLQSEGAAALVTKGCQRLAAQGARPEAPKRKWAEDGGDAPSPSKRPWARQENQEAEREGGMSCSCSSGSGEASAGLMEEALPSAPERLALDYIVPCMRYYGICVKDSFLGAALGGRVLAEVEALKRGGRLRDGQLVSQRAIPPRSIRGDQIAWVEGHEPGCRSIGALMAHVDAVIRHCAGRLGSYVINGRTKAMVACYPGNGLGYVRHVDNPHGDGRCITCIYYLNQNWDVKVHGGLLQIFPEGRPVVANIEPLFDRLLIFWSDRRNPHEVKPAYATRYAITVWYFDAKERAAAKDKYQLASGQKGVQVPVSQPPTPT

What is called Km is the substrate concentration at which the rate is half of its maximum. In the case of `O=C(O)CCC(=O)C(=O)O` [Compound 2-OG, 2-oxoglutarate, reference compound], the Km at full-length human PHD1 (read-out: Km of 2-OG for PHD1) is 0.0127 µM. The term IC50 denotes the midpoint of a concentration-inhibition curve. Low values mean greater potency in that assay, high ones weaker potency in that assay. Regarding `Cc1nn(-c2ccc(P(C)(C)=O)cn2)c(O)c1-c1ccc(C#N)cc1` [Compound 14, 4-(1-(5-(dimethylphosphoryl)pyridin-2-yl)-5-hydroxy-3-methyl-1H-pyrazol-4-yl)benzonitrile], the IC50 on full-length human PHD1 and on full-length human PHD2 was below 100 nM each time. `Cc1nn(-c2ccc([S@@](C)(=N)=O)cn2)c(O)c1-c1ccc(C#N)cc1` [Compound 16, (S)-4-(5-hydroxy-3-methyl-1-(5-(S-methylsulfonimidoyl)pyridin-2-yl)-1H-pyrazol-4-yl)benzonitrile]: the IC50 against full-length human PHD1 and against full-length human PHD2 was below 100 nM each time.

Regarding `Cc1nn(-c2ccc([S@](C)(=N)=O)cn2)c(O)c1-c1ccc(C#N)cc1` [Compound 17, (R)-4-(5-hydroxy-3-methyl-1-(5-(S-methylsulfonimidoyl)pyridin-2-yl)-1H-pyrazol-4-yl)benzonitrile], the IC50 against full-length human PHD1 and on full-length human PHD2 was below 100 nM each time. For the compound `Cc1nn(-c2ccc(S(C)(=N)=O)cn2)c(O)c1-c1ccc(Cl)cc1` (centres unmarked) [Compound 18, (6-(4-(4-chlorophenyl)-5-hydroxy-3-methyl-1H-pyrazol-1-yl)pyridin-3-yl)(imino)(methyl)-λ^6-sulfanone], the IC50 against full-length human PHD1 and at full-length human PHD2 was below 100 nM in each case.

As to `Cc1nn(-c2ccc(S(=N)(=O)C(C)C)cn2)c(O)c1-c1ccc(C#N)cc1` (centres unmarked) [Compound 19, 4-(5-hydroxy-3-methyl-1-(5-(propan-2-ylsulfonimidoyl)pyridin-2-yl)-1H-pyrazol-4-yl)benzonitrile], the IC50 at full-length human PHD1 and at full-length human PHD2 was below 100 nM in each case.

For `Cc1nn(-c2ccc(S(=N)(=O)c3ccccc3)cn2)c(O)c1-c1ccc(C#N)cc1` (centres unmarked) [Compound 20, 4-(5-hydroxy-3-methyl-1-(5-(phenylsulfonimidoyl)pyridin-2-yl)-1H-pyrazol-4-yl)benzonitrile], the IC50 against full-length human PHD1 and against full-length human PHD2 was below 100 nM in each case. Turning to `CCS(=N)(=O)c1ccc(-n2nc(C)c(-c3ccc(C#N)cc3)c2O)nc1` (centres unmarked) [Compound 21, 4-(5-hydroxy-3-methyl-1-(5-(S-ethylsulfonimidoyl)pyridin-2-yl)-1H-pyrazol-4-yl)benzonitrile], the IC50 at full-length human PHD1 and against full-length human PHD2 was below 100 nM each time.

As for `Cc1nn(-c2ccc([S@+](C)[O-])cn2)c(O)c1-c1ccc(C#N)cc1` [Compound 22, (S)-4-(5-hydroxy-3-methyl-1-(5-(methylsulfinyl)pyridin-2-yl)-1H-pyrazol-4-yl)benzonitrile], the IC50 at full-length human PHD1 and at full-length human PHD2 was below 100 nM throughout. As for `Cc1nn(-c2ccc([S@@+](C)[O-])cn2)c(O)c1-c1ccc(C#N)cc1` [Compound 23, (R)-4-(5-hydroxy-3-methyl-1-(5-(methylsulfinyl)pyridin-2-yl)-1H-pyrazol-4-yl)benzonitrile], the 50% inhibitory concentration (IC50) on full-length human PHD1 and against full-length human PHD2 was below 100 nM each time. Regarding `Cc1nn(-c2ccc(S(=N)(N)=O)cn2)c(O)c1-c1ccc(C#N)cc1` (centres unmarked) [Compound 24, 6-(4-(4-cyanophenyl)-5-hydroxy-3-methyl-TH-pyrazol-1-yl)pyridine-3-sulfonimidamide], the IC50 at full-length human PHD1 and against full-length human PHD2 was below 100 nM throughout. `Cc1nn(-c2ccc(-c3cn(C)nn3)cn2)c(O)c1-c1ccc(C#N)cc1` [Compound 54, 4-(5-hydroxy-3-methyl-1-(5-(1-methyl-1H-1,2,3-triazol-4-yl)pyridin-2-yl)-1H-pyrazol-4-yl)benzonitrile]: on full-length human PHD1, the IC50 was below 100 nM. On the same count and under the same terms, under `Cc1cc(-n2nc(C)c(-c3ccc(C#N)cc3)c2O)ncc1S(=O)(=O)N1CCCC1` [Compound 72, 4-(5-hydroxy-3-methyl-1-(4-methyl-5-(pyrrolidin-1-ylsulfonyl)pyridin-2-yl)-1H-pyrazol-4-yl)benzonitrile] stands below 100 nM.
